≈ marks a conversion by molar mass, not a printed value.
Legend:
Format in all cases: functional
Conditions in all cases: Homo sapiens, read-out: LD50 (the source's name)
[1] = system: COLO 205; experiment: Tested for its in vitro cytotoxicity against COLO-205 cells
[2] = system: HEp-2; experiment: Tested for its in vitro cytotoxicity against HEP-2 cells
[3] = system: HeLa; experiment: Tested for its in vitro cytotoxicity against Hela cells
[4] = Tested for its in vitro cytotoxicity against KB cells

Work on `NCCCSCC(COc1ccc(NC(=O)c2cc(-c3ccccc3)nc3ccccc23)cc1)SCCCN` (stereo unspecified) yielded a CC50 [1] of 5.2 µg/mL (≈ 9.27 µM), a CC50 [2] of 1.92 µg/mL (≈ 3.42 µM) and a CC50 [3] of 6.18 µg/mL (≈ 11 µM).

With `NCCCSCC(COc1cccc(-c2ccccc2)c1)SCCCN` (stereo unspecified) the CC50 [1] was 1.41 µg/mL (≈ 3.61 µM), the CC50 [2] was 1.36 µg/mL (≈ 3.48 µM) and the CC50 [3] was 1.2 µg/mL (≈ 3.07 µM). The CC50 [4] was 1.55 µg/mL (≈ 3.97 µM).

`NCCCSCC(COc1ccc(-c2ccccc2)cc1)SCCCN` (stereo unspecified) showed a CC50 [1] of 1.05 µg/mL (≈ 2.69 µM), a CC50 [2] of 1.45 µg/mL (≈ 3.71 µM) and a CC50 [3] of 0.68 µg/mL (≈ 1.74 µM). It also gave a CC50 [4] of 0.92 µg/mL (≈ 2.36 µM).
